{
  "source": "patent US20080241279A1",
  "about": "“Materials and methods of using calcium for reduction of inflammation” (General Mills, Inc., priority 2004, published 2008)",
  "settings": "about 1200 mg/day calcium, about −500 kcal diet, about 12 weeks; control group about 20%",
  "method": "For example, about eighty (80) obese, but otherwise healthy, men and women (average baseline BMI about 34 kg/m2) with an average CRP of about 6.0 mg/L at baseline could be randomized to about 2 groups for about a 12 week intervention. Both groups would consume reduced calorie diets (about −500 kcal) to promote weight loss, with the calcium intake in “the control group” adjusted to about 500 mg/day and in “the intervention group” adjusted to about 1200 mg/day using a calcium source. […] DEXA and hs-CRP measurement can be performed at baseline and about 12 weeks.",
  "data": [
    {"smiles": "O=C([O-])[O-].[Ca+2]", "note": "[calcium carbonate]", "values": [
      {"measurement": "fat loss from trunkal region", "value": "about 50%"}
    ]}
  ]
}
